Source: US6582907B1, “Use of fluorescence correlation spectroscopy to identify compounds that bind to target species under isothermal denaturing conditions” (Pharmacia & Upjohn Company, priority 1999, dated 2003)

Target: T1, HIV-1 protease (Human immunodeficiency virus type 1 group M subtype B, UniProt P04585)
T1 construct: The enzyme HIV-1 protease exists as a dimer
Assay: Isothermal denaturation of Oregon Green-labelled HIV-1 protease monitored by fluorescence correlation spectroscopy (FCS)
Type: binding
Protocol: HIV-1 Protease. HIV-1 Protease was extensively dialyzed against 0.1 M sodium phosphate, 0.05% NaN3, pH 6.5, at 5° C., using a Pierce Slide-A-Lyzer™ (2,000 MWCO). The protease concentration was approximately 1 mg/mL. There was a slight turbidity after dialysis. Protease recovery was assumed to be 100% (53 nanomoles in 1.1 mL).
A freshly prepared solution of Oregon Green™ Iodoacetamide (Molecular Probes Inc., Cat. No. O-6010; approximately 10 mM in DMSO) was added at zero and 5 hours of incubation to achieve at each time a 3-fold molar ratio of Oregon Green™ to protease. At approximately 8 hours another addition of a 4-fold molar excess was made. After each addition the solution was gently but thoroughly mixed. Incubations were without agitation at 5° C. and continued for 16 hours after the last addition.
The resulting clear solution was chromatographed over a Bio-Gel P-6 Desalting Gel™ column (0.9 cm×25 cm) using 50% volume/volume (v/v) glacial acetic acid/distilled-water as the eluant. […]
The solution of conjugated protease was 0.2 micron filtered and evaluated for Oregon Green™ concentration by extinction and for protease concentration by amino acid analysis. Spectrophotometric results determined an Oregon Green™ concentration of 1.94 μM. […]
Microfuge tubes containing 1.5 mL buffer were placed in a pre-equilibrated 48° C. water bath and the temperature was monitored with a telethermometer. […]
This material was diluted to 10 nM in a 2.0 mL teflon chamber already located on the microscope stage containing the same buffer at room temperature. […] Binning combines the fluorescence measurements from contiguous time-periods. […]
The autocorrelated data were analyzed with a nonlinear least squares (NLLSF) fitting program based on that disclosed in Yamaoka et. al., J. Pharmacobio Dyn., 4, 8-15 (1981). […]
In these experiments, since both native and denatured proteins exist, the calculated results represent an average value for the amount of material in the two states. […] The data were analyzed with weighting values of either zero or single inverse weighting. […]

[1] = HIV-1 protease incubated with compound at 48° C. for 24 minutes, single inverse weighting, FIG. 8B

SMILES: CCC[C@@]1(CCc2ccccc2)CC(O)=C([C@H](CC)c2cccc(NS(=O)(=O)c3ccc(C(F)(F)F)cn3)c2)C(=O)O1 [PNU-140690]
- stabilization of HIV-1 protease against isothermal denaturation (change in apparent diffusion coefficient as a function of time) (48° C., time points 0 to 60 minutes, with vs without compound, FIG. 9): clearly stabilizes the enzyme
- G(0) (unimolecular model, autocorrelation curve) [1]: 292×10^−3±11.7×10^−3
- diffusion coefficient (unimolecular model, autocorrelation curve) [1]: 1.33×10^−6±0.09×10^−6
